Data from patent US20250263677A1, “BIOCATALYTIC USE OF NONHEME IRON PROTEINS FOR MOLECULAR FUNCTIONALIZATION” (The Johns Hopkins University, priority 2022, published 2025).
Where two headings read alike, the source gives them in different places.

What was measured:
Format in all cases: biochemical
[1] = Replacement of azide with other halide or pseudohalide anions, Sav HppD Az1 cell lysate
Description: We also tried to extend the scope of N-radical precursors and replace azide with other halide or pseudohalide anions, the results of which analyses are summarized in TABLE 5. For these analyses. ferrous ammonium sulfate (10 μL, 100 mM in water), sodium halide or pseudohalide solution (10 μL, 1 M in water), and N-fluoroamide substrate 1NF (10 μL, 400 mM in DME) were added to a 2 mL vial containing Sav HppD Az1 cell lysate (400 μL, obtained from OD600=20 cell suspension) in an anerobic chamber. The vial was capped and shaken at 680 rpm at room temperature for 24 hours. At the end of the reaction, the vial was opened and the reaction was quenched with 0.8 mL of a hexanes/ethylacetate solution (4:6 v/v) of internal standard 1,2,3-trimethoxybenzene (0.5 mM final concentration). The reaction mixture was transferred to a 2 mL microcentrifuge tube, vortexed (10 seconds, 3 times), then centrifuged (14,000×g, 5 min) to completely separate the organic and aqueous layers. […]

[2] = molecular target: Streptomyces avermitilis (4-hydroxyphenyl)pyruvate dioxygenase (Sav HppD) variant Az1 V189A F216A P243A N245Q Q255A L367I, SEQ ID NO: 2 (Streptomyces avermitilis, UniProt Q53586, F216A/L367I/N245Q/P243A/Q255A/V189A); test: Kinetic analysis of 1NF azidation by purified Sav HppD Az1 (anaerobic, GCMS product quantification); settings: Az1 vs wt
Chain of Streptomyces avermitilis (4-hydroxyphenyl)pyruvate dioxygenase (Sav HppD) variant Az1 V189A F216A P243A N245Q Q255A L367I, SEQ ID NO: 2 (Q53586 whole entry V189A/F216A/P243A/N245Q/Q255A/L367I): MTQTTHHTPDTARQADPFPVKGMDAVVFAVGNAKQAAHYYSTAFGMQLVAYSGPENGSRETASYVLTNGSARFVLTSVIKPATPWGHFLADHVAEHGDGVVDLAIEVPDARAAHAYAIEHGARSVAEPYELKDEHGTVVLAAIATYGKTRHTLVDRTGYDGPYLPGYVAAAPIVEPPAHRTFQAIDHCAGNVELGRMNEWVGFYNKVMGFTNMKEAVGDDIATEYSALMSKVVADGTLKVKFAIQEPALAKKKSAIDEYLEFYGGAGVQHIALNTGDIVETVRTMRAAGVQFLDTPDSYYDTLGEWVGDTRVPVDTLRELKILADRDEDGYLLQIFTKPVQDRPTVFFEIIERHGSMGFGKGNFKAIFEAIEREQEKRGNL
Description: (§1) FIG. 10 is a series of plots which summarize kinetics for non-heme iron enzyme mediated azidation reactions. The leftmost plot provides kinetics data for wild-type Sav HppD. The middle plot provides kinetics data for Az1 Sav HppD. The rightmost plot provides kinetics data for Az2 Sav HppD.
(§2) Protein expression was conducted following the protocols detailed in section (B). E. coli cells expressing non-heme iron enzyme variants were pelleted (4,000×g, 5 min, 4° C.) and stored at −20° C. for at least 24 hours. The cell pallet was then resuspended in 50 mM KPi buffer containing 100 mM NaCl and 20 mM imidazole (pH 7.5 at 25° C.) (10 mL buffer per gram of cell pellet). […] Fractions containing purified proteins were detected by SDS-PAGE, pooled and concentrated using Millipore® centrifugal filter. […] Final concentration was measured by absorbance at 280 nm using a NanoDrop spectrophotometer. The theoretical extinction coefficients (M^−1 cm^−1) used for Say HppD and its variants were calculated using ExPASy Bioinformatics Resources Portal. […]
(§3) Kinetic analyses for wild-type Sav HppD, Az1, and Az2 mediated 1NF azidation were performed in an anaerobic chamber. […] After centrifugation at 12,000 rpm for 10 mins, an aliquot (200 μL) of the organic layer was taken for GCMS analysis for product quantification.

[3] = molecular target: Streptomyces avermitilis (4-hydroxyphenyl)pyruvate dioxygenase (Sav HppD) variant Az2 V189A N191A S230L P243G N245F Q255P L367I, SEQ ID NO: 3 (Streptomyces avermitilis, UniProt Q53586, L367I/N191A/N245F/P243G/Q255P/S230L/V189A); test: Kinetic analysis of 1NF azidation by purified Sav HppD Az2 (anaerobic, GCMS product quantification); settings: comparator not given
Chain of Streptomyces avermitilis (4-hydroxyphenyl)pyruvate dioxygenase (Sav HppD) variant Az2 V189A N191A S230L P243G N245F Q255P L367I, SEQ ID NO: 3 (Q53586 whole entry V189A/N191A/S230L/P243G/N245F/Q255P/L367I): as the sequence (Q53586 whole entry V189A/F216A/P243A/N245Q/Q255A/L367I) above, with N191A, A216F, S230L, A243G, Q245F, A255P counted along it
Description: as §1, §2, §3

[4] = Sav HppD Az1 cell lysate (OD600=20), 1NF, GCMS peak area over internal standard, 24 hours

SMILES	IA/internal [1, 4]	IF/internal [1, 4]	further results
[F-].[Na+] [NaF]	2.5	0.04	
N#C[S-].[Na+] [NaSCN]	2.7	0.05	
CCc1ccccc1C(=O)N(F)C(C)(C)C [1NF, N-(tert-butyl)-2-ethyl-N-fluorobenzamide]			increase in KM over the wild-type enzyme [2]: 1.7 fold; increase in kcat over the wild-type enzyme [2]: 4.1 fold; decrease in KM [3]: 6.6 fold; decrease in kcat [3]: 9 fold
[Cl-].[Na+] [NaCl]			IA/internal [1]: 2.3; IF/internal [1]: 0.04
N#C[O-].[Na+] [NaOCN]	2.1	0.03	
[Br-].[Na+] [NaBr]	2.4	0.04	
O=N[O-].[Na+] [NaNO2]			IA/internal [1]: 1.9; IF/internal [1]: 0.03
